Experimental data: PubChem BioAssay (NCI)
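Where inhibition never reached the appropriate level, the endpoint shown equals the highest concentration tested. Otherwise, values were interpolated linearly from a five-concentration, 48-hour dose response in 96-well plates. GI50 marks 50% less growth. TGI is the concentration that stops growth completely.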

How the values were obtained:
Experiment in all cases: NCI-60 cell line screen, 48 h
[1] = system: NCI-H460 lung
[2] = system: HOP-92 NSCLC
[3] = system: HCT-116 colon
[4] = system: SW-620 colon
[5] = system: SR leukemia
[6] = system: NCI-H226 lung
[7] = system: MDA-MB-435
[8] = system: NCI-H23 lung
[9] = system: HCC-2998 colon
[10] = system: SF-268 CNS
[11] = system: HS 578T breast
[12] = system: HL-60(TB) leukemia
[13] = system: K-562 leukemia
[14] = system: A549 NSCLC
[15] = system: HCT-15 colon
[16] = system: OVCAR-8 ovarian
[17] = system: MALME-3M melanoma
[18] = system: COLO 205 colon
[19] = system: T-47D breast
[20] = system: SNB-75 CNS
[21] = system: RXF 393 renal
[22] = system: PC-3 prostate
[23] = system: SN12C renal
[24] = system: SNB-19 CNS
[25] = system: SF-295 CNS
[26] = system: SK-MEL-5 melanoma
[27] = system: DU-145 prostate
[28] = system: MCF7 breast
[29] = system: RPMI-8226 leukemia
[30] = system: UACC-257 melanoma
[31] = system: MDA-MB-231 breast
[32] = system: EKVX NSCLC
[33] = system: ACHN renal
[34] = system: NCI-H522 lung
[35] = system: UO-31 renal
[36] = system: MOLT-4 leukemia
[37] = system: BT-549 breast
[38] = system: HT29 colon
[39] = system: OVCAR-4 ovarian
[40] = system: CCRF-CEM leukemia
[41] = system: 786-0 renal
[42] = system: OVCAR-3 ovarian
[43] = system: SK-MEL-2 melanoma
[44] = system: LOX IMVI melanoma
[45] = system: KM12 colon
[46] = system: U251 CNS
[47] = system: TK-10 renal
[48] = system: SK-OV-3 ovarian
[49] = system: NCI/ADR-RES ovarian
[50] = system: OVCAR-5 ovarian
[51] = system: M14 melanoma
[52] = system: SF-539 CNS
[53] = system: UACC-62 melanoma
[54] = system: SK-MEL-28 melanoma
[55] = system: IGROV1 ovarian
[56] = system: A498 renal
[57] = system: HOP-62 NSCLC
[58] = system: MDA-N
[59] = system: CAKI-1 renal

Compound: CN1C(=O)c2cc(Cl)nc3c(NC(=O)c4cccc(Cl)c4)c(Cl)c(NC(=O)c4cccc(Cl)c4)c1c23
- GI50 [1]: 2.34 µM
- TGI [1]: 5.17 µM
- GI50 [2]: 1.71 µM
- TGI [2]: 3.41 µM
- GI50 [3]: 1.31 µM
- TGI [3]: 2.69 µM
- GI50 [4]: 1.78 µM
- TGI [4]: 3.93 µM
- GI50 [5]: 0.58 µM
- TGI [5]: 2.95 µM
- GI50 [6]: 2.02 µM
- TGI [6]: 4.05 µM
- GI50 [7]: 1.7 µM
- TGI [7]: 3.2 µM
- GI50 [8]: 2.14 µM
- TGI [8]: 5.92 µM
- GI50 [9]: 1.76 µM
- TGI [9]: 3.41 µM
- GI50 [10]: 1.83 µM
- TGI [10]: 3.73 µM
- GI50 [11]: 2.48 µM
- TGI [11]: 7.16 µM
- GI50 [12]: 2.17 µM
- TGI [12]: 5.11 µM
- GI50 [13]: 1.01 µM
- TGI [13]: 2.57 µM
- GI50 [14]: 4.14 µM
- TGI [14]: 14.8 µM
- GI50 [15]: 0.581 µM
- TGI [15]: 1.94 µM
- GI50 [16]: 2.48 µM
- TGI [16]: 5.7 µM
- GI50 [17]: 1.66 µM
- TGI [17]: 3.44 µM
- GI50 [18]: 1.94 µM
- TGI [18]: 4.01 µM
- GI50 [19]: 1.77 µM
- TGI [19]: 4.32 µM
- GI50 [20]: 1.45 µM
- TGI [20]: 2.84 µM
- GI50 [21]: 1.67 µM
- TGI [21]: 3.12 µM
- GI50 [22]: 1.93 µM
- TGI [22]: 3.99 µM
- GI50 [23]: 1.84 µM
- TGI [23]: 3.48 µM
- GI50 [24]: 2.45 µM
- TGI [24]: 6.08 µM
- GI50 [25]: 2.87 µM
- TGI [25]: 11.6 µM
- GI50 [26]: 2.09 µM
- TGI [26]: 4.36 µM
- GI50 [27]: 2.28 µM
- TGI [27]: 5.19 µM
- GI50 [28]: 1.94 µM
- TGI [28]: 6.26 µM
- GI50 [29]: 3.63 µM
- TGI [29]: 32.6 µM
- GI50 [30]: 1.91 µM
- TGI [30]: 3.55 µM
- GI50 [31]: 2.05 µM
- TGI [31]: 4.24 µM
- GI50 [32]: 1.85 µM
- TGI [32]: 4.21 µM
- GI50 [33]: 1.72 µM
- TGI [33]: 3.09 µM
- GI50 [34]: 1.82 µM
- TGI [34]: 3.75 µM
- GI50 [35]: 1.71 µM
- TGI [35]: 3.44 µM
- GI50 [36]: 2.07 µM
- TGI [36]: 5.21 µM
- GI50 [37]: 1.64 µM
- TGI [37]: 3.19 µM
- GI50 [38]: 1.97 µM
- TGI [38]: 4.05 µM
- GI50 [39]: 1.7 µM
- TGI [39]: 3.3 µM
- GI50 [40]: 2.01 µM
- TGI [40]: 5.59 µM
- GI50 [41]: 2.69 µM
- TGI [41]: 7.96 µM
- GI50 [42]: 1.92 µM
- TGI [42]: 3.57 µM
- GI50 [43]: 2.19 µM
- TGI [43]: 4.35 µM
- GI50 [44]: 1.21 µM
- TGI [44]: 2.58 µM
- GI50 [45]: 3.44 µM
- TGI [45]: 15.5 µM
- GI50 [46]: 1.82 µM
- TGI [46]: 3.24 µM
- GI50 [47]: 2.28 µM
- TGI [47]: 5.84 µM
- GI50 [48]: 4.98 µM
- TGI [48]: 17.4 µM
- GI50 [49]: 3.38 µM
- TGI [49]: 17.3 µM
- GI50 [50]: 12.8 µM
- TGI [50]: 30.1 µM
- GI50 [51]: 1.47 µM
- TGI [51]: 3.03 µM
- GI50 [52]: 1.67 µM
- TGI [52]: 3.39 µM
- GI50 [53]: 1.92 µM
- TGI [53]: 3.76 µM
- GI50 [54]: 1.78 µM
- TGI [54]: 3.45 µM
- GI50 [55]: 1.42 µM
- TGI [55]: 3.15 µM
- GI50 [56]: 3.49 µM
- TGI [56]: 12.7 µM

Compound: COc1cc(C(c2cc3c(cc2O)OCO3)N2CCCC2)cc(OC)c1OC (centres undefined)
- TGI [2]: 20 µM
- TGI [3]: 29.8 µM
- TGI [4]: > 100 µM
- TGI [6]: 33.8 µM
- TGI [7]: 32.5 µM
- TGI [8]: 33.1 µM
- TGI [9]: 88.1 µM
- TGI [12]: 6.06 µM
- TGI [13]: 21.1 µM
- TGI [14]: 48.9 µM
- TGI [15]: 29.2 µM
- TGI [16]: 34 µM
- TGI [17]: 20.7 µM
- TGI [57]: 97.5 µM
- TGI [18]: 26.5 µM
- TGI [19]: 45.7 µM
- TGI [20]: 32.7 µM
- TGI [22]: 34.7 µM
- TGI [23]: 45.9 µM
- TGI [24]: 38.2 µM
- TGI [58]: 27.9 µM
- TGI [25]: 36 µM
- TGI [26]: 41.5 µM
- TGI [27]: 36 µM
- TGI [59]: 27 µM
- TGI [28]: 63.8 µM
- TGI [29]: 41.5 µM
- TGI [30]: 36.6 µM
- TGI [31]: 31.3 µM
- TGI [32]: 30 µM
- TGI [33]: 28.8 µM
- TGI [34]: 11.5 µM
- TGI [35]: 28.1 µM
- TGI [36]: 20.7 µM
- TGI [38]: 28 µM
- TGI [39]: 34.2 µM
- TGI [40]: 5.95 µM
- TGI [41]: 28.8 µM
- TGI [42]: 34.9 µM
- TGI [43]: 40 µM
- TGI [44]: 31.9 µM
- TGI [45]: 37.2 µM
- TGI [46]: 37.8 µM
- TGI [47]: 37.5 µM
- TGI [48]: > 100 µM
- TGI [49]: 56.4 µM
- TGI [50]: 89.7 µM
- TGI [51]: > 100 µM
- TGI [53]: 33.9 µM
- TGI [54]: 41.4 µM
- TGI [55]: 27.8 µM
- TGI [56]: 36.8 µM

Compound: O=c1c(Cc2ccc(Cl)cc2)nnc2sc(-c3ccc([N+](=O)[O-])cc3)nn12
- TGI [1]: 44.1 µM
- TGI [2]: > 100 µM
- TGI [3]: 48.8 µM
- TGI [4]: 80.8 µM
- TGI [5]: 60.4 µM
- TGI [7]: 58.5 µM
- TGI [8]: 54.5 µM
- TGI [9]: 42.6 µM
- TGI [10]: > 100 µM
- TGI [11]: > 100 µM
- TGI [12]: 49.6 µM
- TGI [13]: > 100 µM
- TGI [14]: > 100 µM
- TGI [15]: 29.3 µM
- TGI [16]: > 100 µM
- TGI [17]: 55.5 µM
- TGI [57]: > 100 µM
- TGI [21]: 74.1 µM
- TGI [22]: 47.2 µM
- TGI [23]: > 100 µM
- TGI [24]: > 100 µM
- TGI [58]: > 100 µM
- TGI [25]: > 100 µM
- TGI [27]: > 100 µM
- TGI [59]: > 100 µM
- TGI [28]: 53 µM
- TGI [29]: 89.9 µM
- TGI [30]: 39.5 µM
- TGI [31]: 66.3 µM
- TGI [32]: 64.4 µM
- TGI [33]: 87.3 µM
- TGI [35]: > 100 µM
- TGI [36]: > 100 µM
- TGI [37]: 55.6 µM
- TGI [38]: > 100 µM
- TGI [39]: > 100 µM
- TGI [40]: 55.8 µM
- TGI [41]: > 100 µM
- TGI [43]: 33.7 µM
- TGI [44]: > 100 µM
- TGI [45]: > 100 µM
- TGI [46]: > 100 µM
- TGI [47]: 68.4 µM
- TGI [48]: > 100 µM
- TGI [49]: > 100 µM
- TGI [50]: 88.1 µM
- TGI [51]: 39.2 µM
- TGI [53]: 34 µM
- TGI [55]: > 100 µM
- TGI [56]: 63.6 µM
